Assay results from patent publication US7910559B2, “Decladinosyl-macrolides with anti-inflammatory activity” (GlaxoSmithKline istrazivacki centar Zagreb d.o.o., priority 2005, dated 2011).
Where two headings read alike, the source gives them in different places.

Legend:
Type in all cases: cell-based
human IL-1β = test: Inhibition of IL-1β production by stimulated human peripheral blood leukocytes in vitro (ELISA); conditions: Homo sapiens, Leukocyte, PBL, read-out: Percentage of inhibition of IL-1β production; for inhibition at 10 µM: compound 10 μM; for inhibition at 50 µM: compound 50 μM
Protocol: (§1) Substances, used in in vitro experiments, were dissolved in dimethyl sulfoxide (DMSO) (Kemika, Croatia) at concentrations of 50 mM and 10 mM and were further diluted to the final concentrations of […] in 1 mL Dulbecco's modified Eagle medium (DMEM) supplemented with 1% heat inactivated fetal bovine serum (FBS), 1% glutamax, 50 U/ml penicillin, 50 μg/ml streptomycin and 2.5 μg/mL Fungizone (amphotericin B). Media and all media supplements were purchased from Gibco, Australia, except FBS that was from Sigma, USA.
(§2) Peripheral blood leukocytes (PBL) were obtained from venous blood of healthy volunteers by sedimentation on 2% dextran T-500 (Amersham Biosciences, USA) and subsequent centrifugations of leukocyte-rich plasma.
(§3) Peripheral blood leukocytes (PBL), isolated as described above, were seeded in a 48-well plate at a concentration of 3-5×10^6 cell per well in culture medium consisting of RPMI 1640 medium (Institute of Immunology, Croatia) supplemented with 10% heat-inactivated fetal calf serum (FCS, Biowhittaker, USA), 100 U/ml penicillin (Gibco, Australia), 100 μg/ml streptomycin (Gibco, Australia) and 2 mM L-glutamine (Gibco, Australia), and preincubated with the tested compounds for 2 h at 37° C., in an atmosphere of 5% CO2, and 90% humidity. Afterwards, stimuli (Sigma, USA) were added to a final concentration of 2 μg/mL lipopolysaccharide (LPS), 1 μg/mL phorbol 12-myristate 13-acetate (PMA) or 120 μg/mL zymosan. Samples were incubated overnight under conditions described above. At the end of incubation supernatants were transferred to eppendorf tubes and centrifuged for 10 min at 1500 g. Concentrations of human TNF-α, IL-1β, IL-6 and IL-8 were determined in cell supernatants by sandwich ELISA, using capture and detection antibodies (R&D, USA) according to manufacturer's recommendations.
(§4) Inhibition (as percentage) was calculated using the following formula: % inhibition=(1−concentration of cytokines in sample/concentration of cytokines in positive control)×100 where “positive control” refers to stimulated samples not treated with substances.

human TNF-α = test: Inhibition of TNF-α production by stimulated human peripheral blood leukocytes in vitro (ELISA); conditions: Homo sapiens, Leukocyte, PBL, read-out: Percentage of inhibition of TNF-α production; for inhibition at 10 µM: compound 10 μM; for inhibition at 50 µM: compound 50 μM
Protocol: as §1, §2, §3, §4

Hep G2 = conditions: human, 24 h
Protocol: (§5) Anti-inflammatory activity of compounds, i.e. observed inhibition of cytokine production and inhibition of proliferation in vitro, is not a consequence of their cytotoxicity.
(§6) Measurement of the succinate dehydrogenase activity in living cells was performed in order to assess the cytotoxicity of compounds of the invention. Cells were cultured for 24 hours in RPMI medium as described above at 37° C., in the presence of the tested compounds at concentrations of 50 μM and 12.5 μM. Afterwards, MTT [3-(4,5-dimethylthiazole-2-yl)-2,5-diphenyl tetrazolium bromide] (Promega, USA) as detection reagent was added and incubated for 0.5-2 hours. The amount of produced MTT-Formazan was determined spectrophotometrically at 490 nm (Mosmann, J. Immunol. Methods, 1983, 65: 55-63).
(§7) Percentage of viable cells was calculated using the following formula: % viable cells=[…]

THP-1 = conditions: human, 24 h
Protocol: as §5, §6, §7

A549 = conditions: human, 24 h
Protocol: as §5, §6, §7

human IL-6 = test: Inhibition of IL-6 production by stimulated human peripheral blood leukocytes in vitro (ELISA); conditions: Homo sapiens, Leukocyte, PBL, read-out: Percentage of inhibition of IL-6 production; for inhibition at 10 µM: compound 10 μM; for inhibition at 50 µM: compound 50 μM
Protocol: as §1, §2, §3, §4

human IL-8 = test: Inhibition of IL-8 production by stimulated human peripheral blood leukocytes in vitro (ELISA); conditions: Homo sapiens, Leukocyte, PBL, read-out: Percentage of inhibition of IL-8 production; for inhibition at 10 µM: compound 10 μM; for inhibition at 50 µM: compound 50 μM
Protocol: as §1, §2, §3, §4

| Structure (SMILES) | inhibition at 10 µM (human IL-1β; LPS stimulation) [%] | inhibition at 50 µM (human IL-1β; LPS stimulation) [%] | inhibition at 10 µM (human IL-1β; PMA stimulation) [%] | inhibition at 50 µM (human IL-1β; PMA stimulation) [%] | inhibition at 10 µM (human IL-1β; zymosan stimulation) [%] | inhibition at 50 µM (human IL-1β; zymosan stimulation) [%] | inhibition at 10 µM (human TNF-α; LPS stimulation) [%] | inhibition at 50 µM (human TNF-α; LPS stimulation) [%] | inhibition at 10 µM (human TNF-α; PMA stimulation) [%] | inhibition at 50 µM (human TNF-α; PMA stimulation) [%] | inhibition at 10 µM (human TNF-α; zymosan stimulation) [%] | inhibition at 50 µM (human TNF-α; zymosan stimulation) [%] | Percentage of viable cells after treatment (Hep G2; 12.5 μM) [%] | Percentage of viable cells after treatment (Hep G2; 50 μM) [%] | Percentage of viable cells after treatment (THP-1; 12.5 μM) [%] | Percentage of viable cells after treatment (THP-1; 50 μM) [%] | Percentage of viable cells after treatment (A549; 12.5 μM) [%] | Percentage of viable cells after treatment (A549; 50 μM) [%] | inhibition at 10 µM (human IL-6; LPS stimulation) [%] | inhibition at 50 µM (human IL-6; LPS stimulation) [%] | other results |
| --- | --- | --- | --- | --- | --- | --- | --- | --- | --- | --- | --- | --- | --- | --- | --- | --- | --- | --- | --- | --- | --- |
| CC[C@H]1OC(=O)[C@H](C)[C@@H](OC(=O)CCN(CC)CC)[C@H](C)[C@@H](O[C@@H]2O[C@H](C)C[C@H](N(C)C)C2O)[C@](C)(O)C[C@@H](C)CN(C)[C@H](C)[C@@H](O)[C@]1(C)O (stereo in doubt) [Example 12, 3-O-(3-Diethylamino-propionyl)-3-O-decladinosyl-azithromycin] | 50 | 71 | 54 | 92 | 29 | 72 | 22 | 0 | 30 | 75 | 33 | 0 | >95 | >90 | >90 | 100 | >90 | >90 | 9 | 19 | inhibition at 10 µM (human IL-6; PMA stimulation): 43%; inhibition at 50 µM (human IL-6; PMA stimulation): 93%; inhibition at 10 µM (human IL-6; zymosan stimulation): 0%; inhibition at 50 µM (human IL-6; zymosan stimulation): 96%; inhibition at 10 µM (human IL-8; LPS stimulation): 16%; inhibition at 50 µM (human IL-8; LPS stimulation): 51%; inhibition at 10 µM (human IL-8; PMA stimulation): 31%; inhibition at 50 µM (human IL-8; PMA stimulation): 27%; inhibition at 10 µM (human IL-8; zymosan stimulation): 20%; inhibition at 50 µM (human IL-8; zymosan stimulation): 52% |
| C=CC(=O)O[C@H]1[C@H](C)[C@@H](O[C@@H]2O[C@H](C)C[C@H](N(C)C)[C@H]2O)[C@](C)(OC)C[C@@H](C)C(=O)[C@H](C)[C@@H](O)[C@](C)(O)[C@@H](CC)OC(=O)[C@@H]1C [Example 4, 3-O-Propenoyl-3-O-decladinosyl-6-O-methyl-erythromycin A] | 75 | 100 | 97 | 100 | 61 | 100 | 0 | 100 | 69 | 100 | 0 | 100 | >85 | >95 | 100 | 100 | >95 | >95 | 37 | 100 | inhibition at 10 µM (human IL-6; PMA stimulation): 96%; inhibition at 50 µM (human IL-6; PMA stimulation): 100%; inhibition at 10 µM (human IL-6; zymosan stimulation): 55%; inhibition at 50 µM (human IL-6; zymosan stimulation): 100%; inhibition at 10 µM (human IL-8; LPS stimulation): 29%; inhibition at 50 µM (human IL-8; LPS stimulation): 100%; inhibition at 10 µM (human IL-8; PMA stimulation): 55%; inhibition at 50 µM (human IL-8; PMA stimulation): 90%; inhibition at 10 µM (human IL-8; zymosan stimulation): 10%; inhibition at 50 µM (human IL-8; zymosan stimulation): 100% |
| CC[C@H]1OC(=O)[C@H](C)[C@@H](OC(=O)CCN(CC)CC)[C@H](C)[C@@H](O[C@@H]2O[C@H](C)C[C@H](NC)[C@@H]2O)[C@](C)(OC)C[C@@H](C)C(=O)N[C@H](C)[C@@H](O)[C@]1(C)O [Example 10, 3-O-(3-Diethylamino-propionyl)-3-O-decladinosyl-3′-N-demethyl-6-O-methyl-9a-aza-9a-homoerythromycin A] | 70 | 88 | 80 | 94 | 78 | 100 | 6 | 65 | 68 | 78 | 10 | 75 | 100 | 100 | 100 | 100 | >80 | >90 | 35 | 92 | inhibition at 10 µM (human IL-6; PMA stimulation): 69%; inhibition at 50 µM (human IL-6; PMA stimulation): 92%; inhibition at 10 µM (human IL-6; zymosan stimulation): 40%; inhibition at 50 µM (human IL-6; zymosan stimulation): 100%; inhibition at 10 µM (human IL-8; LPS stimulation): 13%; inhibition at 50 µM (human IL-8; LPS stimulation): 77%; inhibition at 10 µM (human IL-8; PMA stimulation): 23%; inhibition at 50 µM (human IL-8; PMA stimulation): 76%; inhibition at 10 µM (human IL-8; zymosan stimulation): 6%; inhibition at 50 µM (human IL-8; zymosan stimulation): 82% |
| CC[C@H]1OC(=O)[C@H](C)[C@@H](OC(=O)CCN2CCN(CCN(CC)CC)CC2)[C@H](C)[C@@H](O[C@@H]2O[C@H](C)C[C@H](N(C)C)[C@H]2O)[C@](C)(OC)C[C@@H](C)C(=O)N[C@H](C)[C@@H](O)[C@]1(C)O [Example 18, 6-O-Methyl-3-O-decladinosyl-3-O-{3-[4-(2-Diethylamino-ethyl)-piperazin-1-yl]-propionyl}-9a-aza-9a-homoerythromycin A] | 44 | 73 | 66 | 87 | 32 | 76 | 7 | 0 | 50 | 82 | 12 | 0 | >95 | 100 | 100 | 100 | 100 | 100 | 9 | 50 | inhibition at 10 µM (human IL-6; PMA stimulation): 53%; inhibition at 50 µM (human IL-6; PMA stimulation): 47%; inhibition at 10 µM (human IL-6; zymosan stimulation): 18%; inhibition at 50 µM (human IL-6; zymosan stimulation): 47%; inhibition at 10 µM (human IL-8; LPS stimulation): 1%; inhibition at 50 µM (human IL-8; LPS stimulation): 30%; inhibition at 10 µM (human IL-8; PMA stimulation): 16%; inhibition at 50 µM (human IL-8; PMA stimulation): 13%; inhibition at 10 µM (human IL-8; zymosan stimulation): 3%; inhibition at 50 µM (human IL-8; zymosan stimulation): 21% |
